# Experimental data taken from ChEMBL document CHEMBL1201862, “PubChem BioAssay data set” (2004).
#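 Results reflect a 48-hour exposure of cells in 96-well plates to compound at five concentrations. GI50 = concentration required for 50% inhibition of growth.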 Active and inactive are the calls of the source. Rule as the data show it: active = GI50 up to about 1.1 µM and inactive = higher.
# Assays:
# Assay in all cases: NCI anticancer screen, dose series, 48 h
# [1] = test system: T47D
# [2] = test system: IGROV-1
# [3] = test system: NCI-H522
# [4] = test system: M14
# [5] = test system: COLO 205
# [6] = test system: HOP-18
# [7] = test system: SW-620
# [8] = test system: UO-31
# [9] = test system: ACHN
# [10] = test system: RXF 393
# [11] = test system: SF-295
# [12] = test system: SNB-78
# [13] = test system: MDA-MB-435
# [14] = test system: DMS-114
# [15] = test system: DU-145
# [16] = test system: A549
# [17] = test system: MDA-MB-231
# [18] = test system: BT-549
# [19] = test system: SNB-19
# [20] = test system: MCF7
# [21] = test system: SF-268
# [22] = test system: NCI-H23
# [23] = test system: EKVX
# [24] = test system: 786-0
# [25] = test system: SK-MEL-28
# [26] = test system: LXFL 529
# [27] = test system: Hs-578T
# [28] = test system: KM12
# [29] = test system: OVCAR-3
# [30] = test system: DMS-273
# [31] = test system: XF498
# [32] = test system: SN12C
# [33] = test system: HT-29
# [34] = test system: MDA-N
# [35] = test system: HOP-62
# [36] = test system: SK-OV-3
# [37] = test system: DLD-1
# [38] = test system: UACC-62
# [39] = test system: CCRF-CEM
# [40] = test system: OVCAR-8
# [41] = test system: HOP-92
# [42] = test system: CAKI-1
# [43] = test system: LOX IMVI
# [44] = test system: HCT-15
# [45] = test system: SK-MEL-5
# [46] = test system: HCT-116
# [47] = test system: OVCAR-4
# [48] = test system: K562
# [49] = test system: NCI/ADR-RES
# [50] = test system: NCI-H226
# [51] = test system: UACC-257
# [52] = test system: MOLT-4
# [53] = test system: M19-MEL
# [54] = test system: KM-20L2
# [55] = test system: SK-MEL-2
# [56] = test system: SNB-75
# [57] = test system: Malme-3M
# [58] = test system: HL-60
# [59] = test system: A498
# [60] = test system: NCI-H460
# [61] = test system: HCC 2998
# [62] = test system: RPMI-8226
# [63] = test system: SF-539
# [64] = test system: OVCAR-5
# [65] = test system: U-251
# [66] = test system: RXF 631
# [67] = test system: TK-10
# [68] = test system: SR
smiles,measurement,setting,value
CN(C)CCCCN1CCc2c(n(C)c3ccccc23)C1=O,GI50,[1],23.4 µM (inactive)
same,GI50,[2],> 72.6 µM (inactive)
same,GI50,[3],55.3 µM (inactive)
same,GI50,[4],18.5 µM (inactive)
same,GI50,[5],35.3 µM (inactive)
same,GI50,[6],> 100 µM (inactive)
same,GI50,[7],44.4 µM (inactive)
same,GI50,[8],56.9 µM (inactive)
same,GI50,[9],> 77.1 µM (inactive)
same,GI50,[10],31.5 µM (inactive)
same,GI50,[11],48.4 µM (inactive)
same,GI50,[12],> 100 µM (inactive)
same,GI50,[13],17.5 µM (inactive)
same,GI50,[14],> 80.7 µM (inactive)
same,GI50,[15],> 84.5 µM (inactive)
same,GI50,[16],64.7 µM (inactive)
same,GI50,[17],24.6 µM (inactive)
same,GI50,[18],> 37.8 µM (inactive)
same,GI50,[19],> 76.9 µM (inactive)
same,GI50,[20],37.3 µM (inactive)
same,GI50,[21],48.1 µM (inactive)
same,GI50,[22],82 µM (inactive)
same,GI50,[23],51.5 µM (inactive)
same,GI50,[24],61.1 µM (inactive)
same,GI50,[25],20.3 µM (inactive)
same,GI50,[26],19.4 µM (inactive)
same,GI50,[27],41.8 µM (inactive)
same,GI50,[28],68.7 µM (inactive)
same,GI50,[29],> 78.9 µM (inactive)
same,GI50,[30],> 66.7 µM (inactive)
same,GI50,[31],20.7 µM (inactive)
same,GI50,[32],68.1 µM (inactive)
same,GI50,[33],24.3 µM (inactive)
same,GI50,[34],13.4 µM (inactive)
same,GI50,[35],51.3 µM (inactive)
same,GI50,[36],> 70 µM (inactive)
same,GI50,[37],60.4 µM (inactive)
same,GI50,[38],26 µM (inactive)
same,GI50,[39],67.9 µM (inactive)
same,GI50,[40],> 83.4 µM (inactive)
same,GI50,[41],32 µM (inactive)
same,GI50,[42],> 55.8 µM (inactive)
same,GI50,[43],25.9 µM (inactive)
same,GI50,[44],39.4 µM
same,GI50,[45],21.3 µM (inactive)
same,GI50,[46],40.3 µM (inactive)
same,GI50,[47],> 86.7 µM (inactive)
same,GI50,[48],23.4 µM (inactive)
same,GI50,[49],39.4 µM (inactive)
same,GI50,[50],> 61.5 µM (inactive)
same,GI50,[51],17.2 µM (inactive)
same,GI50,[52],48.1 µM (inactive)
same,GI50,[53],38 µM (inactive)
same,GI50,[54],33 µM (inactive)
same,GI50,[55],25.9 µM (inactive)
same,GI50,[56],34.1 µM (inactive)
same,GI50,[57],21.7 µM (inactive)
CCOC(=O)C(=O)Nc1ccccc1C,GI50,[2],> 100 µM (inactive)
same,GI50,[58],29.4 µM (inactive)
same,GI50,[3],> 100 µM (inactive)
same,GI50,[59],> 100 µM (inactive)
same,GI50,[4],> 100 µM (inactive)
same,GI50,[5],> 100 µM (inactive)
same,GI50,[7],> 100 µM (inactive)
same,GI50,[8],> 100 µM (inactive)
same,GI50,[9],> 100 µM (inactive)
same,GI50,[10],> 100 µM (inactive)
same,GI50,[12],> 100 µM (inactive)
same,GI50,[14],> 100 µM (inactive)
same,GI50,[60],> 100 µM (inactive)
same,GI50,[16],> 100 µM (inactive)
same,GI50,[19],> 100 µM (inactive)
same,GI50,[21],> 100 µM (inactive)
same,GI50,[22],> 100 µM (inactive)
same,GI50,[23],> 100 µM (inactive)
same,GI50,[24],> 100 µM (inactive)
same,GI50,[25],> 100 µM (inactive)
same,GI50,[26],> 100 µM (inactive)
same,GI50,[61],> 100 µM (inactive)
same,GI50,[62],> 100 µM (inactive)
same,GI50,[31],24.9 µM (inactive)
same,GI50,[32],> 100 µM (inactive)
same,GI50,[63],> 100 µM (inactive)
same,GI50,[64],> 100 µM (inactive)
same,GI50,[35],> 100 µM (inactive)
same,GI50,[36],> 100 µM (inactive)
same,GI50,[37],> 100 µM (inactive)
same,GI50,[38],> 100 µM (inactive)
same,GI50,[39],> 100 µM (inactive)
same,GI50,[40],> 100 µM (inactive)
same,GI50,[41],> 100 µM (inactive)
same,GI50,[42],> 100 µM (inactive)
same,GI50,[43],> 100 µM (inactive)
same,GI50,[44],> 100 µM
same,GI50,[45],> 100 µM (inactive)
same,GI50,[65],> 100 µM (inactive)
same,GI50,[46],> 100 µM (inactive)
same,GI50,[47],> 100 µM (inactive)
same,GI50,[48],> 100 µM (inactive)
same,GI50,[66],> 100 µM (inactive)
same,GI50,[50],> 100 µM (inactive)
same,GI50,[67],> 100 µM (inactive)
same,GI50,[52],> 100 µM (inactive)
same,GI50,[53],> 100 µM (inactive)
same,GI50,[54],> 100 µM (inactive)
same,GI50,[55],> 100 µM (inactive)
same,GI50,[56],> 100 µM (inactive)
same,GI50,[57],> 100 µM (inactive)
COc1cc([C@@H]2Oc3cc4oc(-c5ccccc5)cc(=O)c4c(O)c3O[C@H]2OC)ccc1O,GI50,[2],22.4 µM (inactive)
same,GI50,[58],2.85 µM (inactive)
same,GI50,[3],5.97 µM (inactive)
same,GI50,[59],14.3 µM (inactive)
same,GI50,[4],11 µM (inactive)
same,GI50,[5],20.5 µM (inactive)
same,GI50,[9],11 µM (inactive)
same,GI50,[12],18.2 µM (inactive)
same,GI50,[60],4.48 µM (inactive)
same,GI50,[21],6.03 µM (inactive)
same,GI50,[22],10.8 µM (inactive)
same,GI50,[24],8.2 µM (inactive)
same,GI50,[25],4.69 µM (inactive)
same,GI50,[26],11.1 µM (inactive)
same,GI50,[61],13.2 µM (inactive)
same,GI50,[62],5.71 µM (inactive)
same,GI50,[30],4.03 µM (inactive)
same,GI50,[32],12.1 µM (inactive)
same,GI50,[68],4.14 µM (inactive)
same,GI50,[63],15 µM (inactive)
same,GI50,[35],13.2 µM (inactive)
same,GI50,[36],17.8 µM (inactive)
same,GI50,[37],7.69 µM (inactive)
same,GI50,[38],15 µM (inactive)
same,GI50,[39],3.7 µM (inactive)
same,GI50,[41],23.6 µM (inactive)
same,GI50,[42],19.4 µM (inactive)
same,GI50,[46],7.16 µM (inactive)
same,GI50,[47],14.6 µM (inactive)
same,GI50,[48],5.71 µM (inactive)
same,GI50,[66],17.8 µM (inactive)
same,GI50,[50],19.3 µM (inactive)
same,GI50,[52],4.91 µM (inactive)
same,GI50,[53],7.4 µM (inactive)
same,GI50,[55],14.8 µM (inactive)
same,GI50,[56],12.4 µM (inactive)
same,GI50,[57],14.3 µM (inactive)
CC(C)c1ccc(Cc2ccc(C(C)C)c(NC(=O)C(=O)Cc3cnc4ccccc4n3)c2C(C)C)c(C(C)C)c1NC(=O)C(=O)Cc1cnc2ccccc2n1,GI50,[2],> 100 µM (inactive)
same,GI50,[58],> 100 µM (inactive)
same,GI50,[59],> 100 µM (inactive)
same,GI50,[4],> 100 µM (inactive)
same,GI50,[5],> 100 µM (inactive)
same,GI50,[7],> 100 µM (inactive)
same,GI50,[8],53 µM (inactive)
same,GI50,[9],> 100 µM (inactive)
same,GI50,[11],> 100 µM (inactive)
same,GI50,[12],> 100 µM (inactive)
same,GI50,[14],> 100 µM (inactive)
same,GI50,[60],> 100 µM (inactive)
same,GI50,[16],> 100 µM (inactive)
same,GI50,[19],> 100 µM (inactive)
same,GI50,[23],> 100 µM (inactive)
same,GI50,[24],> 100 µM (inactive)
same,GI50,[26],> 100 µM (inactive)
same,GI50,[61],> 100 µM (inactive)
same,GI50,[28],> 100 µM (inactive)
same,GI50,[29],> 100 µM (inactive)
same,GI50,[62],> 100 µM (inactive)
same,GI50,[63],> 100 µM (inactive)
same,GI50,[64],> 100 µM (inactive)
same,GI50,[35],> 100 µM (inactive)
same,GI50,[36],> 100 µM (inactive)
same,GI50,[37],> 100 µM (inactive)
same,GI50,[38],> 100 µM (inactive)
same,GI50,[39],> 100 µM (inactive)
same,GI50,[40],> 100 µM (inactive)
same,GI50,[41],12.4 µM (inactive)
same,GI50,[42],98.9 µM (inactive)
same,GI50,[43],> 100 µM (inactive)
same,GI50,[44],> 100 µM
same,GI50,[45],> 100 µM (inactive)
same,GI50,[65],> 100 µM (inactive)
same,GI50,[46],> 100 µM (inactive)
same,GI50,[47],> 100 µM (inactive)
same,GI50,[48],> 100 µM (inactive)
same,GI50,[66],> 100 µM (inactive)
same,GI50,[51],> 100 µM (inactive)
same,GI50,[67],> 100 µM (inactive)
same,GI50,[52],> 100 µM (inactive)
same,GI50,[53],> 100 µM (inactive)
same,GI50,[54],> 100 µM (inactive)
same,GI50,[55],> 100 µM (inactive)
same,GI50,[57],> 100 µM (inactive)
